# Measured values published in PubChem BioAssay (NCI).
#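 Tested at 5 concentrations; 48 h exposure; 96-well plates; endpoints linearly interpolated, else capped at highest concentration. GI50 is the concentration that inhibits growth by half. At the TGI there is no net growth.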
# Assays:
# Assay in all cases: NCI-60 cell line screen, 48 h
# [1] = system: SNB-75 CNS
# [2] = system: NCI-H460 lung
# [3] = system: A498 renal
# [4] = system: SF-539 CNS
# [5] = system: MALME-3M melanoma
# [6] = system: UO-31 renal
# [7] = system: OVCAR-8 ovarian
# [8] = system: NCI-H522 lung
# [9] = system: HS 578T breast
# [10] = system: SW-620 colon
# [11] = system: OVCAR-3 ovarian
# [12] = system: CAKI-1 renal
# [13] = system: SNB-19 CNS
# [14] = system: IGROV1 ovarian
# [15] = system: HL-60(TB) leukemia
# [16] = system: ACHN renal
# [17] = system: HOP-62 NSCLC
# [18] = system: TK-10 renal
# [19] = system: HCT-15 colon
# [20] = system: SF-268 CNS
# [21] = system: SK-MEL-5 melanoma
# [22] = system: OVCAR-4 ovarian
# [23] = system: COLO 205 colon
# [24] = system: 786-0 renal
# [25] = system: LOX IMVI melanoma
# [26] = system: SK-MEL-28 melanoma
# [27] = system: RPMI-8226 leukemia
# [28] = system: MCF7 breast
# [29] = system: UACC-257 melanoma
# [30] = system: RXF 393 renal
# [31] = system: MDA-MB-435
# [32] = system: SF-295 CNS
# [33] = system: A549 NSCLC
# [34] = system: HT29 colon
# [35] = system: OVCAR-5 ovarian
# [36] = system: NCI/ADR-RES ovarian
# [37] = system: CCRF-CEM leukemia
# [38] = system: SR leukemia
# [39] = system: BT-549 breast
# [40] = system: PC-3 prostate
# [41] = system: SK-OV-3 ovarian
# [42] = system: NCI-H226 lung
# [43] = system: U251 CNS
# [44] = system: UACC-62 melanoma
# [45] = system: SK-MEL-2 melanoma
# [46] = system: DU-145 prostate
# [47] = system: HCC-2998 colon
# [48] = system: HOP-92 NSCLC
# [49] = system: HCT-116 colon
# [50] = system: MDA-MB-231 breast
# [51] = system: NCI-H23 lung
# [52] = system: EKVX NSCLC
# [53] = system: K-562 leukemia
# [54] = system: M14 melanoma
# [55] = system: MOLT-4 leukemia
# [56] = system: SN12C renal
structure (smiles),measurement,setting,value
CC1OC(O[C@@H]2C(O)C(CO)OC(O[C@H]3COC(O[C@H]4CC[C@]5(C)[C@H]6CC[C@]78OC[C@@]9(CC[C@](C)(C=O)C[C@H]97)[C@H](O)C[C@@]8(C)[C@]6(C)CC[C@H]5C4(C)C)[C@@H](OC4OC(CO)[C@@H](O)[C@@H](O)[C@@H]4O)[C@@H]3O)[C@H]2OC2OC[C@@H](O)[C@@H](O)[C@@H]2O)[C@@H](O)[C@@H](O)[C@H]1O (some centres not stated),GI50,[1],1700 nM
same,TGI,[1],3.25 µM
same,GI50,[2],1880 nM
same,TGI,[2],3.83 µM
same,GI50,[3],2260 nM
same,TGI,[3],3.98 µM
same,GI50,[4],1610 nM
same,TGI,[4],3.1 µM
same,GI50,[5],1740 nM
same,TGI,[5],3.51 µM
same,GI50,[6],1350 nM
same,TGI,[6],2820 nM
same,GI50,[7],2100 nM
same,TGI,[7],4.28 µM
same,GI50,[8],1970 nM
same,TGI,[8],3.75 µM
same,GI50,[9],1920 nM
same,TGI,[9],4.14 µM
same,GI50,[10],1840 nM
same,TGI,[10],3.7 µM
same,GI50,[11],1980 nM
same,TGI,[11],3.82 µM
same,GI50,[12],1890 nM
same,TGI,[12],3.48 µM
same,GI50,[13],1810 nM
same,TGI,[13],3.71 µM
same,GI50,[14],1820 nM
same,TGI,[14],3.93 µM
same,GI50,[15],598 nM
same,TGI,[15],2190 nM
same,GI50,[16],1500 nM
same,TGI,[16],2920 nM
same,GI50,[17],1760 nM
same,TGI,[17],3.47 µM
same,GI50,[18],2790 nM
same,TGI,[18],4.51 µM
same,GI50,[19],2230 nM
same,TGI,[19],5.01 µM
same,GI50,[20],1910 nM
same,TGI,[20],3.91 µM
same,GI50,[21],2380 nM
same,TGI,[21],5.81 µM
same,GI50,[22],1840 nM
same,TGI,[22],3.93 µM
same,GI50,[23],1620 nM
same,TGI,[23],3.16 µM
same,GI50,[24],2140 nM
same,TGI,[24],3.97 µM
same,GI50,[25],1740 nM
same,TGI,[25],3.39 µM
same,GI50,[26],1690 nM
same,TGI,[26],3.29 µM
same,GI50,[27],1730 nM
same,TGI,[27],4.28 µM
same,GI50,[28],1980 nM
same,TGI,[28],4.11 µM
same,GI50,[29],2030 nM
same,TGI,[29],3.77 µM
same,GI50,[30],811 nM
same,TGI,[30],2400 nM
same,GI50,[31],1850 nM
same,TGI,[31],3.57 µM
same,GI50,[32],1760 nM
same,TGI,[32],3.31 µM
same,GI50,[33],2110 nM
same,TGI,[33],4.04 µM
same,GI50,[34],1990 nM
same,TGI,[34],4.02 µM
same,GI50,[35],1860 nM
same,TGI,[35],3.42 µM
same,GI50,[36],1970 nM
same,TGI,[36],4.15 µM
same,GI50,[37],1210 nM
same,TGI,[37],4.34 µM
same,GI50,[38],357 nM
same,TGI,[38],1240 nM
same,GI50,[39],1770 nM
same,TGI,[39],3.5 µM
same,GI50,[40],1950 nM
same,TGI,[40],3.64 µM
same,GI50,[41],1920 nM
same,TGI,[41],3.49 µM
same,GI50,[42],1890 nM
same,TGI,[42],3.98 µM
same,GI50,[43],2120 nM
same,TGI,[43],3.87 µM
same,GI50,[44],1970 nM
same,TGI,[44],3.82 µM
same,GI50,[45],2330 nM
same,TGI,[45],4.24 µM
same,GI50,[46],1950 nM
same,TGI,[46],3.71 µM
same,GI50,[47],1950 nM
same,TGI,[47],3.52 µM
same,GI50,[48],982 nM
same,TGI,[48],2620 nM
same,GI50,[49],1480 nM
same,TGI,[49],2980 nM
same,GI50,[50],1760 nM
same,TGI,[50],3.51 µM
same,GI50,[51],1890 nM
same,TGI,[51],3.74 µM
same,GI50,[52],1930 nM
same,TGI,[52],3.84 µM
same,GI50,[53],2200 nM
same,TGI,[53],5.68 µM
same,GI50,[54],1710 nM
same,TGI,[54],3.4 µM
same,GI50,[55],1130 nM
same,TGI,[55],3.98 µM
same,GI50,[56],1700 nM
same,TGI,[56],3.51 µM
